Literature values as cited in US20140332438A1, “WATER-SOLUBLE MELOXICAM GRANULES” (Boehringer Ingelheim Vetmedica GmbH, priority 2002, published 2014).

Conditions: aqueous solution, according to EP-A-0 945 134

solubility in water: does not dissolve readily in water
SMILES: Cc1cnc(NC(=O)C2=C(O)c3ccccc3S(=O)(=O)N2C)s1 [meloxicam, 4-hydroxy-2-methyl-N-(5-methyl-2-thiazolyl)-2H-1,2-benzothiazine-3-carboxamide-1,1-dioxide]
